Type in all cases: cell-based, human
One experiment relates to iDCs. The experiment can be described thus: Fatty acid screen: fatty acids titrated onto iDCs without OVA, nAFP or tAFP. The note with it: for lactate production: relative to control cells, 16:0 at 5-20 μM in b86. An excerpt:
We developed an in vitro assay to screen specific FAs that are necessary for tAFP-mediated suppression of DC formation (FIG. 6A). Many of the FAs screened have known roles in promoting (Weatherill, A. R. et al. Saturated and Polyunsaturated Fatty Acids Reciprocally Modulate Dendritic Cell Functions Mediated through TLR4. J Immunol. 174, 5390-5397 (2005); Lancaster, G. I. et al. Evidence that TLR4 Is Not a Receptor for Saturated Fatty Acids but Mediates Lipid-Induced Inflammation by Reprogramming Macrophage Metabolism. Cell Metab. 27, 1096-1110.e5 (2018)) or limiting DC differentiation (Zeyda, M. et al. Polyunsaturated Fatty Acids Block Dendritic Cell Activation and Function Independently of NF-κB Activation. J Biol. Chem. 280, 14293-14301 (2005)). Therefore, to determine their necessity for tAFP-mediated DC suppression, we titrated several FAs unique to tAFP (20:3 N6, 20:5, and 22:5 N3), and other PUFAs to determine the concentration they lost their inherent ability to suppress DC differentiation in the absence of OVA, nAFP, or tAFP (FIG. 6A). […] All three PUFAs at high concentrations inhibited CD206 expression on DCs (Zeyda. M. et al. Polyunsaturated Fatty Acids Block Dendritic Cell Activation and Function Independently of NF-κB Activation. J Biol. Chem. 280, 14293-14301 (2005)), at levels equivalent to or greater than tAFP treatment.
Fatty acids were resuspended in ethanol and stored at −20° C. at 100 uM. […] Both the native preparations and HMM fractions contained similar amounts of protein (˜0.5 mg/mL), whereas protein was undetectable ([…]) in the low molar mass (LMM) fraction. […] Fats (+/−HMM) were added to pre-warmed media and incubated for 1 hour, mixing at 37° C. before adding to cells (Alsabeeh, N., Chausse, B., Kakimoto, P. A., Kowaltowski, A. J. & Shirihai, O. Cell Culture Models of Fatty Acid Overload: Problems and Solutions. Biochim. Biophys. Acta 1863, 143-151 (2018)). Fats were combined with HMM at a 3:1 molar ratio, as previously described (Alsabeeh, N., Chausse, B., Kakimoto, P. A., Kowaltowski, A. J. & Shirihai. O. Cell Culture Models of Fatty Acid Overload: Problems and Solutions. Biochim. Biophys. Acta 1863, 143-151 (2018)).

For another experiment, the system named is iDCs and mDCs. As to the kind of experiment: Fatty acid screen: fatty acids added back to HMM OVA, nAFP or tAFP. As to conditions: for CD206 expression at the iDC stage / inhibition of CD206 expression, mDC: FA combined with tAFP; for CD206 expression compared to controls: FA+HMM tAFP. How it is done:
Fatty acids were resuspended in ethanol and stored at −20° C. at 100 uM.

Experiment [1] deals with monocyte-derived dendritic cells (DCs). As to the kind of experiment: SCENITH single-cell energetic metabolism profiling of treated DCs. The note with it: DC. An excerpt: (§1) DCs were differentiated in vitro similarly as previously described (Pardee, A. D., Shi, J. & Butterfield, L. H. Tumor-Derived α-Fetoprotein Impairs the Differentiation and T Cell Stimulatory Activity of Human Dendritic Cells. J Immunol. 193, 5723-5732 (2014)). In brief, cryopreserved PBMC were thawed and CD14*monocytes were magnetically labeled using CD14 MicroBeads (Miltenyi, Cat #130-050-201) and isolated by LS columns (Miltenyi, Cat #130-042-401) per the manufacturer instructions. Viable eluted cells were enumerated using trypan blue on a Nexcelom Cellometer Spectrum. To generate iDCs, monocytes were stimulated for 5 days in the presence of 800 IU/mL of rGM-CSF (Miltenyi, Cat #130-093-862) and 500 IU/mL of rIL-4 (Miltenyi, Cat #130-095-373) as well as OVA, nAFP, or tAFP in CellGenix® GMP DC media (Cat #20801-0500) 37° C. at 5% CO2. Lastly, we performed an additional 24-hour stimulation with 1000 IU/mL of rIFN-γ (Peprotech, Cat #300-02) and 250 ng/mL of LPS (Sigma Aldrich, Cat #L2630-10MG) to produce mDCs. To harvest cells, DC were detached using TrypLE™ Select (Gibco, Cat #12563011) for 15 minutes at 37° C. and then washed several times with cold PBS.
SCENITH was performed as described in (Arguello et al., 2020). SCENITH™ reagents kit (inhibitors, puromycin and antibodies) were obtained from www.scenith.com/try-it and used according to the provided protocol for in-vitro derived myeloid cells. Briefly, control and tol-moDC cultures at desired timepoints, were treated for 18 minutes with Control (DMSO), 2-Deoxy-Glucose (2-DG; 100 mM), Oligomycin (0; 1 μM), a combination of 2DG and Oligomycin (DGO) or Harringtonine (H; 2 μg/mL). Following metabolic inhibitors, Puromycin (final concentration 10 μg/mL) was added to cultures for 17 min. After puromycin treatment, cells were detached from wells using TypLE Select (Fisher Scientific, 505914419), washed in cold PBS and stained with a combination of Human TureStain FcX (Biolegend, 422301) and fluorescent cell viability dye (Biolegend, 423105) for 10 min 4° C. in PBS. Following PBS wash step, primary antibodies against surface markers were incubated for 25 min at 4° C. in Brilliant Stain Buffer (BD Biosciences, 563794). Next cells were fixed and permeabilized using True-Nuclear Transcription Factor Buffer Set (Biolegend, 424401) as per manufacturer instructions. Intracellular staining of puromycin and protein targets was performed for 1 h in diluted (10×) permeabilization buffer at 4° C. Finally, data acquisition was performed using the Cytek Aurora flow cytometer. Primary conjugated antibody information used in SCENITH panel is listed in supplementary table 1. All antibodies were titrated to reduce spillover and increase resolution using single stained moDC (generated as described above) samples. Unstained cell controls used for autofluorescence extraction were generated for each time point, culture conditions (control, vitd3-tol-moDC and dexa-vitd3-tol-moDC) and metabolic inhibitor treatments (C, 2DG, O, DGO). Samples were unmixed using reference controls generated in combination with stained Ultracomp beads (Fisher Scientific, 01-2222-41) and stained cells using the SpectroFlo Software v2.2.0.1. The unmixed FCS files were used for data processing and analysis using FlowJo (BD, version 10.7.1). Manually gated CD14-HLA-DR*CD86+ cells were used for downstream analysis. gMFI expression values were imported into R environment for correlation and heatmap analysis using the below described R packages.

Experiment [2] shares this test system. The experiment can be described thus: Glucose and lactate measurements in DC cultures. As to conditions: DC.
Excerpt: as §1
Glucose and lactate were measured by applying approximately 5 μL of supernatant to Clarity BG1000 Blood Glucose strips (Cat #75840-798) and meter (Cat #75840-800) system or the Lactate Plus strips (Nova Biomedical©, Cat #40813) and meter version 2 (Nova Biomedical©, Cat #62624) system. Each meter was quality checked with control glucose and lactate solutions and CellGenix™ media before each experiment.

Another experiment has as its system mDCs generated in vitro. As to the kind of experiment: scMEP single-cell metabolic regulome profiling by CyTOF. On the procedure:
scMEP analysis was performed as recently described (Hartmann et al., 2021). In short, antibodies targeting metabolic features were conjugated in-house using an optimized conjugation protocol (Hartmann et al., 2019) and validated on multiple sample types. Cells were prepared for scMEP analysis by incubation with small molecules to be able to assess biosynthesis rates of DNA, RNA and protein, cisplatin-based live/dead staining, PFA-based cell fixation and cryopreservation (dx.doi.org/10.17504/protocols.io.bkwkkxcw). Next, cells were stained with metabolic antibodies in a procedure that includes surface staining for 30 min at RT, PFA-fixation for 10 min at RT, MeOH-based permeabilization for 10 min on ice, intracellular staining for 1 h at RT and DNA intercalation (dx.doi.org/10.17504/protocols.io.bntnmeme). Finally, cells were acquired on a CyTOF2 mass cytometer (Fluidigm). Protein targets and antibody information used in scMEP are listed in supplementary table 2. Raw mass spectrometry data were pre-processed, de-barcoded and imported into R environment using the flowCore package (version 2.0.1) (Hahne et al., 2009). Values were arcsin h transformed (cofactor 5) and normalized (Hartmann et al., 2021) for downstream analyses based on previously reported workflow (Nowicka et al., 2017).

Turning to `CCCCCCCCCCCCCCCC(=O)O` [16:0, palmitic acid], the ox-phos entry in the experiment with iDCs is “can promote”. Moreover, in the experiment on iDCs (fatty acid alone), the “CD206 expression on DCs” value is recorded as “increase”, the DC differentiation entry is reported as “tended to promote” and the lactate production entry was “tended to decrease”. The lactate production result with iDCs (fatty acid alone, listed as palmitic acid) is recorded as “decrease”.
As for `CCCCC/C=C\C/C=C\C/C=C\CCCCCCC(=O)O` [20:3 N6, dihomo-γ-linolenic acid], in the experiment with iDCs and mDCs, the “CD206 expression at the iDC stage” value is listed as “immunoregulatory activity”; the “inhibition of CD206 expression, mDC” value is on record as around -15%; the “CD206 expression compared to controls” value was “significantly reduced”.
Turning to `CCCCC/C=C\C/C=C\C/C=C\C/C=C\CCCC(=O)O` [20:4, arachidonic acid], in the experiment with iDCs and mDCs, the “CD206 expression at the iDC stage” value is “immunoregulatory activity”; the “inhibition of CD206 expression, mDC” value was around -15%; the “CD206 expression compared to controls” value is listed as “significantly reduced”.
Consider `CCCCC/C=C\C/C=C\C/C=C\C/C=C\CCCCCC(=O)O` [22:4, adrenic acid], for which the “inhibition of CD206 expression, mDC” value with iDCs and mDCs was around -15%.

B1: palmitic acid-bound AFP: alpha fetoprotein non-covalently bound to palmitic acid (protein, UniProt P02771 19-609, looked up)
Alpha-fetoprotein: RTLHRNEYGIASILDSYQCTAEISLADLATIFFAQFVQEATYKEVSKMVKDALTAIEKPTGDEQSSGCLENQLPAFLEELCHEKEILEKYGHSDCCSQSEEGRHNCFLAHKKPTPASIPLFQVPEPVTSCEAYEEDRETFMNKFIYEIARRHPFLYAPTILLWAARYDKIIPSCCKAENAVECFQTKAATVTKELRESSLLNQHACAVMKNFGTRTFQAITVTKLSQKFTKVNFTEIQKLVLDVAHVHEHCCRGDVLDCLQDGEKIMSYICSQQDTLSNKITECCKLTTLERGQCIIHAENDEKPEGLSPNLNRFLGDRDFNQFSSGEKNIFLASFVHEYSRRHPQLAVSVILRVAKGYQELLEKCFQTENPLECQDKGEEELQKYIQESQALAKRSCGLFQKLGEYYLQNAFLVAYTKKAPQLTSSELMAITRKMAATAATCCQLSEDKLLACGEGAADIIIGHLCIRHEMTPVNPGVGQCCTSSYANRRPCFSSLVVDETYVPPAFSDDKFIFHKDLCQAQGVALQTMKQEFLINLVKQKPQITEEQLEAVIADFSGLLEKCCQGQEQEVCFAEEGQKLISKTRAALGV
modifications: non-covalently bound palmitic acid
For the molecule B1, in the experiment with iDCs and mDCs (fatty acid-bound AFP), the “CD206 expression in dendritic cells” value is listed as “increased” and the “lactate secretion in dendritic cells” value was “decreased”.

B2: nAFP: cord blood-derived normal alpha fetoprotein; commercially available (Cell Sciences) (protein, UniProt P02771 19-609, looked up)
Alpha-fetoprotein: RTLHRNEYGIASILDSYQCTAEISLADLATIFFAQFVQEATYKEVSKMVKDALTAIEKPTGDEQSSGCLENQLPAFLEELCHEKEILEKYGHSDCCSQSEEGRHNCFLAHKKPTPASIPLFQVPEPVTSCEAYEEDRETFMNKFIYEIARRHPFLYAPTILLWAARYDKIIPSCCKAENAVECFQTKAATVTKELRESSLLNQHACAVMKNFGTRTFQAITVTKLSQKFTKVNFTEIQKLVLDVAHVHEHCCRGDVLDCLQDGEKIMSYICSQQDTLSNKITECCKLTTLERGQCIIHAENDEKPEGLSPNLNRFLGDRDFNQFSSGEKNIFLASFVHEYSRRHPQLAVSVILRVAKGYQELLEKCFQTENPLECQDKGEEELQKYIQESQALAKRSCGLFQKLGEYYLQNAFLVAYTKKAPQLTSSELMAITRKMAATAATCCQLSEDKLLACGEGAADIIIGHLCIRHEMTPVNPGVGQCCTSSYANRRPCFSSLVVDETYVPPAFSDDKFIFHKDLCQAQGVALQTMKQEFLINLVKQKPQITEEQLEAVIADFSGLLEKCCQGQEQEVCFAEEGQKLISKTRAALGV
As to B2, in experiment [1], the FAO entry is “similarly reduces” and the glucose dependent metabolism entry was “modestly increases”. For the same molecule, the glucose uptake entry in experiment [2] is “modestly increases”. Further, the “levels of cytochrome C (CytC)” value with mDCs generated in vitro is “elevated”.

The record behind these values is patent US20260166115A1, “POLYUNSATURATED FATTY ACID-BOUND ALPHA FETOPROTEIN PROMOTES IMMUNE SUPPRESSION BY ALTERING HUMAN DENDRITIC CELL METABOLISM” (The Regents of the University of California, priority 2022, published 2026).
